Peptide text beside a SMILES is read from it. * marks the point of attachment. Cbz = O=C(OCc1ccccc1)*; CH2F = FC*
B1: FasL: recombinant Fas ligand added to keratinocyte cultures (protein, UniProt P48023 130-281, looked up)
Tumor necrosis factor ligand …: QIGHPSPPPEKKELRKVAHLTGKSNSRSMPLEWEDTYGIVLLSGVKYKKGGLVINETGLYFVYSKVYFRGQSCNNLPLSHKVYMRNSKYPQDLVMMEGKMMSYCTTGQMWARSSYLGAVFNLTSADHLYVNVSELSLVNFEESQTFFGLYKL

Experiments:
[1] = test system: keratinocytes; assay: Pemphigus sera-induced Dsg3 cleavage and caspase-8 activation in confluent keratinocytes, Western blotting; assay type: cell-based, human; conditions: pretreatment with Z-IETD-FMK (100 μM for 30 min) or NOK2 15 μg/ml, then sera 72 hrs; FIG. 12A
Method: To investigate whether the extrinsic apoptotic pathway is responsible for dsg cleavage, we pretreated confluent keratinocytes with caspase-8 inhibitor Z-IETD-FMK (100 μM for 30 min) or with anti-FasL (NOK2, 15 μg/ml) Ab. Then cells were incubated for 72 hrs with healthy or untreated pemphigus sera. Protein extracts from the culture were analyzed by Western blotting using anti-Dsg3 antibodies and anti-caspase-8 Ab. Vinculin was used as internal control. (FIG. 12A).

[2] = test system: keratinocytes; assay: Pemphigus sera-induced cell detachment (acantholysis) of confluent keratinocytes; assay type: cell-based, human; conditions: pretreatment with Z-IETD-FMK (100 μM for 30 min) or NOK2 15 μg/ml, then sera 72 hrs; FIG. 12B
[3] = test system: human keratinocytes; assay: Pemphigus sera-induced keratinocyte apoptosis, TUNEL staining; assay type: cell-based; conditions: sera pretreated with anti-FasL neutralizing antibody (2.5 mg per ml for 30 min) or Z-IETD-FMK (100 μM for 30 min); FIG. 6
Method: As apoptotic keratinocytes are abundantly expressed in pemphigus, we wanted to explore whether pemphigus sera are capable of inducing apoptosis in normal human keratinocytes. To this purpose, keratinocytes were plated in chamber slides and cultured in serum-free medium (KGM) up to preconfluence. Cells were then cultured in keratinocyte basal medium and treated for 48 h with the addition of 25% serum from either untreated patients or patients treated with systemic corticosteroids. Sera from healthy subjects were used as controls. Apoptosis was evaluated by TUNEL staining in situ. Approximately 100 cells were evaluated, in randomly selected fields, and the percentage of TUNEL-positive cells was counted.
FasL is one of the major triggers of the caspase-8 activated extrinsic apoptotic pathway. Therefore, we wanted to evaluate whether this pathway plays a role in pemphigus apoptosis. To this purpose, patient sera were pretreated with anti-FasL neutralizing antibody or caspase-8 inhibitor, and added to keratinocyte cultures. Keratinocytes were cultured in KGM and treated with pemphigus sera or with sera from untreated patients. Sera were pretreated with anti-FasL neutralizing antibody (2.5 mg per ml for 30 min) or caspase-8 inhibitor Z-IETD-FMK (100 μM for 30 min). Apoptosis was evaluated by TUNEL staining.

[4] = test system: keratinocytes; assay: Treatment of keratinocytes with increasing amounts of FasL, Western blotting with anti-Dsg1 and anti-Dsg3; assay type: cell-based, human; conditions: FasL 0.1, 10, 100 ng/ml for 72 hrs; FIG. 9
Method: Protein extracts from the culture were analyzed by Western blotting using anti-Dsg1 and anti-Dsg3 antibodies. β-actin was used as internal control. These doses are consistent with the ones detected in pemphigus sera (FIG. 9).

Molecule	caspase-8 activation by untreated pemphigus sera [1]	dsg cleavage by untreated pemphigus sera [1]	cell detachment (i.e. acantholysis) by untreated pemphigus sera [2]	pemphigus sera-induced keratinocyte apoptosis (TUNEL staining) [3]	cleavage of dsgs (Dsg1, Dsg3) by FasL [4]
CC[C@H](C)[C@H](NC(=O)OCc1ccccc1)C(=O)N[C@@H](CCC(=O)OC)C(=O)N[C@H](C(=O)N[C@@H](CC(=O)OC)C(=O)CF)[C@@H](C)O [Z-IETD-FMK] (Cbz-IE(OMe)TD(OMe)-CH2F)	prevents both caspase-8 activation and dsg cleavage	prevents both caspase-8 activation and dsg cleavage	prevented	partially prevented	–
B1	–	–	–	–	cleaved dsgs in a dose-dependent manner

Reference: US20110038867A1, “REMEDIES FOR PEMPHIGUS CONTAINING ANTI FAS LIGAND ANTIBODIES” (priority 2007, published 2011)
